Values quoted from earlier work, collected in patent US9913492B1, “Yolatile liquid inhaler and method of manufacture” (priority 2010, dated 2018).

Columns and labels:
[1] = at 25 degrees C.

SMILES	lethal dose (adult human beings; comparison with nicotine)	lethal dosage (adult human beings; adult human beings)	LD50 (mice)	vapor pressure [1]	LD50 (rats)
COC(=O)[C@H]1[C@@H](OC(=O)c2ccccc2)C[C@@H]2CC[C@H]1N2C [cocaine]	1000 mg				
CN1CCCC1c1cccnc1 (centres unmarked) [nicotine]		40 to 60 mg	3 mg/kg	0.53 MBR	50 mg/kg
